From patent US12642852B1, “Genomic engineering of pluripotent cells” (Fate Therapeutics, Inc., priority 2015, dated 2026)

Tests used:
iCasp9-integrated iPSCs = assay: In vitro inducible killing of iCasp9-integrated iPSCs by AP1903, 7AAD/GFP flow cytometry; assay type: cell-based, human; conditions: for cell death mediated by AP1903 (7AAD negative cells percentage): 24 hrs
Description: (§1) In vitro inducible killing of iCasp9-integrated iPSCs: The chemical inducer of dimerization (CID; AP1903) was purchased from Medchemexpress (Monmouth Junction, NJ). Twenty-four hours after CID exposure, the cells were harvested and stained with 7-amino actinomycin D (7-AAD) according to the manufacturer's instruction (BD Biosciences). The percentage of 7-AAD positive cells were quantified as dead cells by flow cytometry (Guava, EMD Millipore, Billerica, MA) and analyzed with flowjo software.
Similar to 293T cells, hiPSCs were transfected with ZFNs specific to AAVS1 locus and a donor construct encompassing CMV-driven iCasp9 (AAVS1-G1.0). The puromycin selection was started 3 days after transfection and continued for 16 days. The puro-resistant cells were analyzed by flow cytometry for GFP expression. Three populations based on the GFP intensity, GFP (neg), GFP (low) and GFP (hi) were sorted by flow cytometry (FIG. 1E). […] The treated cells were harvested and stained with 7AAD and analyzed by flow cytometry. […] However, in contrast to 293T cells with targeted Casp9 insertion at AAVS1 locus, cell death mediated by the AP1903 was not detected in all treatments in iPSCs with targeted Casp9 insertion at AAVS1 locus (FIG. 1F). […]
Because in the previous study puromycin selection under the AAVS1 promoter was robustly expressed to maintain viability and growth during selection, next a donor construct encompassing iCasp9 was designed to target the AAVS1 locus with endogenous AAVS1 promoter driving iCasp9 gene expression upon insertion (and GFP, and puromycin marker genes) (FIG. 2A). hiPSCs were transfected with ZFNs specific to AAVS1 locus and the donor construct encompassing iCasp9 under the control of AAVS1 endogenous promoter. […] The treated cells were harvested and stained with 7AAD and analyzed by flow cytometry. […] However, cell death mediated by the AP1903 was not detected in all treatments in iPSCs with targeted insertion of Casp9 at AAVS1 locus, and controlled Casp9 expression by endogenous AAVS1 promoter (FIG. 2C). […]

[1] = system: CAG-C38 iCasp9 iPSC clone with targeted insertion of sr39TK into H11 locus; assay: Dual suicide gene safe guard system killing in vitro (iCasp9 at AAVS1, sr39TK at H11); assay type: cell-based, human
Description: In addition to CAG-iCasp9 integrated into AAVS1 locus, CAG-sr39TK was integrated into H11 safe harbor in CAG-C38 clonal iPSC using targeted insertion method described herein.

[2] = system: puro-selected 293T cells with CMV-driven iCasp9 (AAVS1-G1.0) at AAVS1 locus; assay: In vitro inducible killing by AP1903, 7AAD staining and flow cytometry, 293T cells; assay type: cell-based; conditions: AP1903 10 nM or 120 nM, 24 hrs, DMSO control, n=2
Description: as §1
A donor construct encompassing CMV-driven iCasp9 (AAVS1-G1.0) was designed to target the AAVS1 locus (FIG. 1A) and to integrate the Casp9 suicide gene to 293T cells. The donor construct also comprise GFP and puromycin genes, the expression of which are driven by AAVS1 endogenous promoter once the targeted insertion takes place (FIG. 1A). 293T cells were transfected with ZFNs specific to AAVS1 locus and the donor construct AAVS1-G1.0. Three days after transfection, the puromycin selection was started and continued for 12 days. The puro-selected population was analyzed by flow cytometry for GFP expression, and a range of GFP expression levels were observed. It was observed that about 82% of the puro-selected cell population expressed GFP (FIG. 1B). […] The treated cells were then harvested and stained with 7AAD, which selectively stains membrane-compromised dying cells, and analyzed by flow cytometry. […]

| Compound | cell death mediated by AP1903 (7AAD negative cells percentage) (iCasp9-integrated iPSCs; hiPSCs with CMV-driven iCasp9, GFP (neg), GFP (low), GFP (hi) populations, 10 nM or 100 nM) | AP1903 cell death induction of GFP positive cells (iCasp9-integrated iPSCs; hiPSCs with EF1α-driven iCasp9 at AAVS1, puromycin selected 20 days) | cell death mediated by AP1903 (7AAD negative cells percentage) (iCasp9-integrated iPSCs; iPSCs with iCasp9 under endogenous AAVS1 promoter) | inducible killing ([1]; 10 nM AP1903 alone for two days) | cell death (7AAD negative cells percentage) [2] | inducible killing ([1]; 25 μg/mL GCV alone for nine days) |
| --- | --- | --- | --- | --- | --- | --- |
| CC[C@H](C(=O)N1CCCC[C@H]1C(=O)O[C@H](CCc1ccc(OC)c(OC)c1)c1cccc(OCC(=O)NCCNC(=O)COc2cccc([C@@H](CCc3ccc(OC)c(OC)c3)OC(=O)[C@@H]3CCCCN3C(=O)[C@@H](CC)c3cc(OC)c(OC)c(OC)c3)c2)c1)c1cc(OC)c(OC)c(OC)c1 [AP1903] | not detected | although few, were responsive | not detected | inducible killing of most cells but rare cells remained | Significant cell death was detected |  |
| Nc1nc(O)c2ncn(COC(CO)CO)c2n1 [GCV, Ganciclovir] |  |  |  |  |  | expanded GCV-refractory cells |
